Test results reported in patent US5008252A, “Process for inhibiting herpes simplex virus-specified thymidine kinase” (The University of North Carolina at Chapel Hill, priority 1987, dated 1991).
pIC50: −log10 of the molar value.

Legend:
[1] = molecular target: HSV-1 (KOS) dThd kinase in infected HeLa BU cells (Human alphaherpesvirus 1 strain KOS, UniProt P17402); assay: Intracellular dThd kinase activity ([14C]dThd phosphorylation); type: cell-based, HSV-1 (strain KOS)
Procedure: (§1) Intracellular dThd kinase activity. HeLa S3 or HeLa BU cells (1.5×10^6 /ml) were mock infected or infected with HSV-1 or HSV-2at 3 PFU/cell and incubated at 37° C. for a 1 h adsorption period. The medium was then removed, and the cells were washed with growth medium and resuspended at a cell density of 5×10^5 cells/ml in RPMI 1640 medium supplemented with kanamycin (100 μg/ml) and 5% dialyzed fetal bovine serum. At 9 h post-HSV infection, [14C]dThd (0.16 μCi/ml; 1 μM dThd) and different amounts of 5'-Et-dThd were added to the medium depending on experimental conditions. At the end of the labeling period (1 h), the cells were pelleted by centrifugation, washed with phosphate-buffered-saline (PBS) and resuspended in a small volume of PBS. Aliquots were then pipetted directly onto DE81 discs which were immediately washed in 100% EtOH. The DE81 discs were washed two additional times in 100% EtOH, and then radioactivity associated with the discs was measured by scintillation counting in 5 ml of aqueous counting fluid. In this manner, total intracellular dThd kinase activity was determined from the sum of radioactive acid soluble dThd nucleotides plus the acid insoluble dTMP associated with DNA, both precipitated directly on the DE81 discs.

host dTMP kinase = molecular target: T1, host dTMP kinase (Homo sapiens, UniProt P23919); assay: dTMP (thymidylate) kinase assay, crude extracts of HSV-2 (333)-infected HeLa BU cells; type: biochemical; conditions: 25 μM dTMP substrate, read-out: IC50 of dTMP kinase (reflects host dTMP kinase activity)
T1 construct: endogenous in cells; host or cells: HSV-2 (333)-infected HeLa BU cells, extract
Procedure: The thymidylate kinase and synthase assays were performed according to known procedures (see, Cheng, Y.-C. & Prusoff, W. H. (1974) Anal. Biochem. 60:545-550; Roberts, D. (1966) Biochemistry 5:3546-3548; Dolnick, B. J. & Cheng, Y. C. (1977) J. Biol. Chem. 252:7697-7703). dThd phosphorylase activity was determined by monitoring conversion of [^14 C]dThd to [14 C] thymine using high performance liquid chromatography (HPLC). Briefly, after a 30 min incubation of enzyme extract with radiolabeled dThd at 37° C., the reaction was stopped by addition of 25% trichloroacetic acid. After neutralization and centrifugation, the supernatants were loaded on to an Alltech Lichrosorb RP-18 column, and the column was eluted at a rate of 1 ml/min with 5 mM KH2 PO4 (pH 3.5)--10% methanol. Fractions of 1 ml were collected and radioactivity associated with dThd and thymine (as previously determined by retention times of authentic markers measured by their absorbance at 265 nm) was measured by scintillation counting. For evaluation of whether 5'-Et-dThd could serve substrate for dThd phosphorylase, reactions were carried out as described as above, except that 5'-Et-dThd was used instead of [^14 C]dThd; metabolites were then analyzed by HPLC as described above.

[2] = molecular target: HSV-1 SC16 dThd kinase in infected HeLa BU cells (Human herpesvirus 1, UniProt P06479); assay: Intracellular dThd kinase activity ([14C]dThd phosphorylation); type: cell-based, HSV-1 (strain SC16); conditions: intracellular [14C]dThd phosphorylation
Procedure: as §1

Sequence of HSV-1 (KOS) dThd kinase in infected HeLa BU cells (P17402 whole entry, looked up): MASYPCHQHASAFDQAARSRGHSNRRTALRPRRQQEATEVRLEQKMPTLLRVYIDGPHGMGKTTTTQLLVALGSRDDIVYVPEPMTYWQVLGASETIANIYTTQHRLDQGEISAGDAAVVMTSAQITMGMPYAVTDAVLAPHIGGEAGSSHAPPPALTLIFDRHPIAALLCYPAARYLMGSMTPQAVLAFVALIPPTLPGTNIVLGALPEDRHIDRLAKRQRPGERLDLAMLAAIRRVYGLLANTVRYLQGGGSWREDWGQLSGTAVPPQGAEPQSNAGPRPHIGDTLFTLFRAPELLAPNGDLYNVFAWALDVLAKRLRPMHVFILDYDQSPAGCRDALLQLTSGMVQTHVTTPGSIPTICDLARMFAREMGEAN
Sequence of HSV-1 SC16 dThd kinase in infected HeLa BU cells (P06479 whole entry, looked up): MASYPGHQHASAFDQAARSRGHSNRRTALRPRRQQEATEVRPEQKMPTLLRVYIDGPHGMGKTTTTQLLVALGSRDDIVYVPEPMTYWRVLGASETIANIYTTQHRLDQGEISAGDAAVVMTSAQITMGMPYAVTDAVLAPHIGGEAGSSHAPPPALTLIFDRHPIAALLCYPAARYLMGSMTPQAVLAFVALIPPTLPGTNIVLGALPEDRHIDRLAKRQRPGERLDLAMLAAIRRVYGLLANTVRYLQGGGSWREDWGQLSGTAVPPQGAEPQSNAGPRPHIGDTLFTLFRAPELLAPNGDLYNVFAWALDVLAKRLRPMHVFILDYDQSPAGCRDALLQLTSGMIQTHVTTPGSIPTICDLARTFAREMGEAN
T1 sequence (P23919 whole entry): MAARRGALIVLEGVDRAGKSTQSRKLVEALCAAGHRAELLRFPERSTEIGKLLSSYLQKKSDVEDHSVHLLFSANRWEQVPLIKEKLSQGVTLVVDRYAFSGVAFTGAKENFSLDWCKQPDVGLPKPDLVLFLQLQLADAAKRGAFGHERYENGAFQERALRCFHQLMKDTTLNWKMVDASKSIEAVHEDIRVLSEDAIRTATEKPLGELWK

Question: 5'-ethynylthymidine [5'-Et-dThd] was tested. Which “dThd phosphorylating activity, % of untreated control” value ([1]; 25 μM, HSV-1-infected HeLa BU, 9 h post infection, 1 h labeling) did it give?
Answer: Its value is 12.5%.

Question: And the “inhibition of dThd kinase-mediated [14C]dThd phosphorylation” value ([1]; 100 μM, HSV-1-infected HeLa BU cells, 9 h post infection)?
Answer: The value was 97%.

Question: And the pIC50 ([1]; HSV-1 KOS, intracellular [14C]dThd phosphorylation, HeLa BU cells)?
Answer: Its pIC50 is 5.52.

Question: What about the pIC50 (host dTMP kinase) of the same substance?
Answer: The pIC50 was 4.22.

Question: And the pIC50 [2]?
Answer: The pIC50 was 5.30.
